Test results reported in ChEMBL document CHEMBL1144896 (2003).

Legend:
Assay type in all cases: functional
NCI-H1299 [1] = experiment: Compound was tested for human telomerase reverse transcriptase-SEAP (hTERT-SEAP) activity in non-small cell lung cancer H1299 cell at 22 uM concentration
NCI-H1299 [2] = experiment: Compound was tested for human telomerase reverse transcriptase-SEAP (hTERT-SEAP) activity in non-small cell lung cancer H1299 cell at 220.0 uM concentration
NCI-H1299 [3] = experiment: hTERT-SEAP (Human telomerase reverse transcriptase-SEAP) activity in non-small cell lung cancer H1299 cell at 22 uM concentration and level of cell viability determined in MTT assay
BJ [4] = experiment: hTERT-SEAP (Human telomerase reverse transcriptase-SEAP) activity in immortalized hTERT-BJI at 2.2 uM concentration and level of cell viability determined in MTT assay
NCI-H1299 [5] = experiment: Compound was tested for human telomerase reverse transcriptase-SEAP (hTERT-SEAP) activity in non-small cell lung cancer H1299 cell at 2.2 uM concentration
BJ [6] = experiment: Compound was tested for human telomerase reverse transcriptase-SEAP (hTERT-SEAP) activity in immortalized hTERT-BJI at 2.2 uM concentration
BJ [7] = experiment: hTERT-SEAP (Human telomerase reverse transcriptase-SEAP) activity in immortalized hTERT-BJI at 220.0 uM concentration and level of cell viability determined in MTT assay
NCI-H1299 [8] = experiment: hTERT-SEAP (Human telomerase reverse transcriptase-SEAP) activity in non-small cell lung cancer H1299 cell at 220.0 uM concentration and level of cell viability determined in MTT assay
BJ [9] = experiment: Compound was tested for human telomerase reverse transcriptase-SEAP (hTERT-SEAP) activity in immortalized hTERT-BJI at 22 uM concentration
BJ [10] = experiment: hTERT-SEAP (Human telomerase reverse transcriptase-SEAP) activity in immortalized hTERT-BJI at 22 uM concentration and level of cell viability determined in MTT assay
NCI-H1299 [11] = experiment: hTERT-SEAP (Human telomerase reverse transcriptase-SEAP) activity in non-small cell lung cancer H1299 cell at 2.2 uM concentration and level of cell viability determined in MTT assay
BJ [12] = experiment: Compound was tested for human telomerase reverse transcriptase-SEAP (hTERT-SEAP) activity in immortalized hTERT-BJI at 220.0 uM concentration
BJ [13] = experiment: Compound was tested for human telomerase reverse transcriptase-SEAP (hTERT-SEAP) activity in immortalized hTERT-BJI at 210.0 uM concentration
NCI-H1299 [14] = experiment: Compound was tested for human telomerase reverse transcriptase-SEAP (hTERT-SEAP) activity in non-small cell lung cancer H1299 cell at 21 uM concentration
NCI-H1299 [15] = experiment: hTERT-SEAP (Human telomerase reverse transcriptase-SEAP) activity in non-small cell lung cancer H1299 cell at 210.0 uM concentration and level of cell viability determined in MTT assay
BJ [16] = experiment: Compound was tested for human telomerase reverse transcriptase-SEAP (hTERT-SEAP) activity in immortalized hTERT-BJI at 21 uM concentration
NCI-H1299 [17] = experiment: hTERT-SEAP (Human telomerase reverse transcriptase-SEAP) activity in non-small cell lung cancer H1299 cell at 21 uM concentration and level of cell viability determined in MTT assay
NCI-H1299 [18] = experiment: Compound was tested for human telomerase reverse transcriptase-SEAP (hTERT-SEAP) activity in non-small cell lung cancer H1299 cell at 210.0 uM concentration
BJ [19] = experiment: hTERT-SEAP (Human telomerase reverse transcriptase-SEAP) activity in immortalized hTERT-BJI at 21 uM concentration and level of cell viability determined in MTT assay
NCI-H1299 [20] = experiment: Compound was tested for human telomerase reverse transcriptase-SEAP (hTERT-SEAP) activity in non-small cell lung cancer H1299 cell at 2.1 uM concentration
BJ [21] = experiment: hTERT-SEAP (Human telomerase reverse transcriptase-SEAP) activity in immortalized hTERT-BJI at 210.0 uM concentration and level of cell viability determined in MTT assay
NCI-H1299 [22] = experiment: hTERT-SEAP (Human telomerase reverse transcriptase-SEAP) activity in non-small cell lung cancer H1299 cell at 2.1 uM concentration and level of cell viability determined in MTT assay
BJ [23] = experiment: Compound was tested for human telomerase reverse transcriptase-SEAP (hTERT-SEAP) activity in immortalized hTERT-BJI at 2.1 uM concentration

Row | SMILES | Relative SEAP activity (NCI-H1299 [1]) [%] | Relative SEAP activity (NCI-H1299 [2]) [%] | Relative viability (NCI-H1299 [3]) [%] | Relative viability (BJ [4]) [%] | Relative SEAP activity (NCI-H1299 [5]) [%] | Relative SEAP activity (BJ [6]) [%] | Relative viability (BJ [7]) [%] | Relative viability (NCI-H1299 [8]) [%] | Relative SEAP activity (BJ [9]) [%] | Relative viability (BJ [10]) [%] | Relative viability (NCI-H1299 [11]) [%] | Relative SEAP activity (BJ [12]) [%] | Relative SEAP activity (BJ [13]) [%] | Relative SEAP activity (NCI-H1299 [14]) [%] | Relative viability (NCI-H1299 [15]) [%] | Relative SEAP activity (BJ [16]) [%] | Relative viability (NCI-H1299 [17]) [%] | Relative SEAP activity (NCI-H1299 [18]) [%] | Relative viability (BJ [19]) [%] | Relative SEAP activity (NCI-H1299 [20]) [%] | further results
1 | Nc1cccc(Sc2cccc3c2C(=O)c2cccc(Sc4cccc(N)c4)c2C3=O)c1 | 109 | 101 | 68 | 104 | 106 | 118 | 4 | 32 | 41 | 9 | 92 | 8 | – | – | – | – | – | – | – | – | –
2 | O=C1c2cccc(SCc3ccccc3)c2C(=O)c2cccc(SCc3ccccc3)c21 | 100 | 100 | 44 | 121 | 97 | 117 | 47 | 34 | 112 | 98 | 83 | 87 | – | – | – | – | – | – | – | – | –
3 | Cc1ccccc1C(=O)Oc1cccc2c1C(=O)c1cccc(OC(=O)c3ccccc3C)c1C2=O | – | – | – | – | – | – | – | – | – | – | – | – | 94 | 91 | 45 | 120 | 36 | 90 | 82 | 97 | Relative viability (BJ [21]): 39%; Relative viability (NCI-H1299 [22]): 72%; Relative SEAP activity (BJ [23]): 129%
4 | Cc1cccc(C(=O)Oc2cccc3c2C(=O)c2cccc(OC(=O)c4cccc(C)c4)c2C3=O)c1 | – | – | – | – | – | – | – | – | – | – | – | – | 86 | 116 | 29 | 124 | 28 | 110 | 54 | 104 | Relative viability (BJ [21]): 47%; Relative viability (NCI-H1299 [22]): 26%; Relative SEAP activity (BJ [23]): 141%
5 | O=C1c2cccc(SCCc3ccccc3)c2C(=O)c2cccc(SCCc3ccccc3)c21 | 102 | 97 | 51 | 91 | 108 | 119 | 35 | 27 | 109 | 54 | 93 | 110 | – | – | – | – | – | – | – | – | –
6 | O=C(Cc1ccccc1)Oc1cccc2c1C(=O)c1cccc(OC(=O)Cc3ccccc3)c1C2=O | – | – | – | – | – | – | – | – | – | – | – | – | 100 | 101 | 30 | 125 | 53 | 142 | 97 | 98 | Relative viability (BJ [21]): 64%; Relative viability (NCI-H1299 [22]): 91%; Relative SEAP activity (BJ [23]): 129%
7 | Cc1ccc(Sc2cccc3c2C(=O)c2cccc(Sc4ccc(C)cc4)c2C3=O)cc1 | 103 | 90 | 41 | 111 | 117 | 132 | 22 | 25 | 109 | 77 | 84 | 87 | – | – | – | – | – | – | – | – | –
8 | Nc1ccc(Sc2cccc3c2C(=O)c2cccc(Sc4ccc(N)cc4)c2C3=O)cc1 | 95 | 84 | 76 | 86 | 100 | 97 | – | 42 | 97 | 65 | 103 | 26 | – | – | – | – | – | – | – | – | –
9 | O=C(Oc1cccc2c1C(=O)c1cccc(OC(=O)c3ccccc3)c1C2=O)c1ccccc1 | 94 | 86 | 60 | 103 | 88 | 137 | 51 | 33 | 122 | 87 | 99 | 84 | – | – | – | – | – | – | – | – | –
10 | Cc1ccc(C(=O)Oc2cccc3c2C(=O)c2cccc(OC(=O)c4ccc(C)cc4)c2C3=O)cc1 | – | – | – | – | – | – | – | – | – | – | – | – | 99 | 95 | 32 | 126 | 33 | 95 | 98 | 98 | Relative viability (BJ [21]): 56%; Relative viability (NCI-H1299 [22]): 61%; Relative SEAP activity (BJ [23]): 130%
11 | O=C1c2cccc(SCCCCCCO)c2C(=O)c2cccc(SCCCCCCO)c21 | – | – | – | – | – | – | – | – | – | – | – | – | 75 | 100 | 36 | 128 | 94 | 68 | 70 | 110 | Relative viability (BJ [21]): 40%; Relative viability (NCI-H1299 [22]): 99%; Relative SEAP activity (BJ [23]): 140%
